According to ChEMBL document CHEMBL1201862, “PubChem BioAssay data set” (2004):
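Cells were grown in 96-well plates and exposed to each compound for 48 hours at five concentrations; endpoints were interpolated linearly between bracketing concentrations, or set to the highest concentration if not reached. GI50 is the concentration that inhibits growth by half.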 The source made the active and inactive calls. No stated cut-off is given here; in the data, active = GI50 up to about 1.1 µM and inactive = higher.

How the values were obtained:
Experiment in all cases: NCI-60 cell line screen, 48 h
786-0 = test system: 786-0
A498 = test system: A498
A549 = test system: A549
ACHN = test system: ACHN
CAKI-1 = test system: CAKI-1
CCRF-CEM = test system: CCRF-CEM
COLO 205 = test system: COLO 205
DU-145 = test system: DU-145
EKVX = test system: EKVX
HCC 2998 = test system: HCC 2998
HCT-116 = test system: HCT-116
HCT-15 = test system: HCT-15
HL-60 = test system: HL-60
HOP-62 = test system: HOP-62
HOP-92 = test system: HOP-92
HT-29 = test system: HT-29
Hs-578T = test system: Hs-578T
IGROV-1 = test system: IGROV-1
K562 = test system: K562
KM12 = test system: KM12
LOX IMVI = test system: LOX IMVI
M14 = test system: M14
MCF7 = test system: MCF7
MDA-MB-231 = test system: MDA-MB-231
MDA-MB-435 = test system: MDA-MB-435
MDA-N = test system: MDA-N
MOLT-4 = test system: MOLT-4
Malme-3M = test system: Malme-3M
NCI-H226 = test system: NCI-H226
NCI-H23 = test system: NCI-H23
NCI-H460 = test system: NCI-H460
NCI-H522 = test system: NCI-H522
NCI/ADR-RES = test system: NCI/ADR-RES
OVCAR-3 = test system: OVCAR-3
OVCAR-4 = test system: OVCAR-4
OVCAR-5 = test system: OVCAR-5
OVCAR-8 = test system: OVCAR-8
PC-3 = test system: PC-3
RPMI-8226 = test system: RPMI-8226
RXF 393 = test system: RXF 393
SF-268 = test system: SF-268
SF-295 = test system: SF-295
SF-539 = test system: SF-539
SK-MEL-28 = test system: SK-MEL-28
SK-MEL-2 = test system: SK-MEL-2
SK-MEL-5 = test system: SK-MEL-5
SN12C = test system: SN12C
SNB-19 = test system: SNB-19
SR = test system: SR
SW-620 = test system: SW-620
T47D = test system: T47D
TK-10 = test system: TK-10
U-251 = test system: U-251
UACC-257 = test system: UACC-257
UACC-62 = test system: UACC-62
UO-31 = test system: UO-31

CSc1ccccc1NC1=NCCO1
GI50 (786-0): > 100 µM (inactive)
GI50 (A498): > 100 µM (inactive)
GI50 (A549): > 100 µM (inactive)
GI50 (ACHN): > 100 µM (inactive)
GI50 (CAKI-1): > 100 µM (inactive)
GI50 (CCRF-CEM): > 100 µM (inactive)
GI50 (COLO 205): > 100 µM (inactive)
GI50 (DU-145): > 100 µM (inactive)
GI50 (EKVX): > 100 µM (inactive)
GI50 (HCC 2998): > 100 µM (inactive)
GI50 (HCT-116): > 100 µM (inactive)
GI50 (HCT-15): > 100 µM
GI50 (HL-60): > 100 µM (inactive)
GI50 (HOP-62): > 100 µM (inactive)
GI50 (HOP-92): > 100 µM (inactive)
GI50 (HT-29): > 100 µM (inactive)
GI50 (Hs-578T): > 100 µM (inactive)
GI50 (IGROV-1): > 100 µM (inactive)
GI50 (K562): > 100 µM (inactive)
GI50 (KM12): > 100 µM (inactive)
GI50 (LOX IMVI): > 100 µM (inactive)
GI50 (M14): > 100 µM (inactive)
GI50 (MCF7): > 100 µM (inactive)
GI50 (MDA-MB-231): > 100 µM (inactive)
GI50 (MDA-MB-435): > 100 µM (inactive)
GI50 (MDA-N): > 100 µM (inactive)
GI50 (MOLT-4): > 100 µM (inactive)
GI50 (Malme-3M): > 100 µM (inactive)
GI50 (NCI-H226): > 100 µM (inactive)
GI50 (NCI-H23): > 100 µM (inactive)
GI50 (NCI-H460): > 100 µM (inactive)
GI50 (NCI-H522): > 100 µM (inactive)
GI50 (NCI/ADR-RES): > 100 µM (inactive)
GI50 (OVCAR-3): > 100 µM (inactive)
GI50 (OVCAR-4): > 100 µM (inactive)
GI50 (OVCAR-5): > 100 µM (inactive)
GI50 (OVCAR-8): > 100 µM (inactive)
GI50 (PC-3): > 100 µM (inactive)
GI50 (RPMI-8226): > 100 µM (inactive)
GI50 (RXF 393): > 100 µM (inactive)
GI50 (SF-268): > 100 µM (inactive)
GI50 (SF-295): > 100 µM (inactive)
GI50 (SF-539): > 100 µM (inactive)
GI50 (SK-MEL-28): > 100 µM (inactive)
GI50 (SK-MEL-2): > 100 µM (inactive)
GI50 (SK-MEL-5): > 100 µM (inactive)
GI50 (SN12C): > 100 µM (inactive)
GI50 (SNB-19): > 100 µM (inactive)
GI50 (SR): > 100 µM (inactive)
GI50 (SW-620): > 100 µM (inactive)
GI50 (T47D): > 100 µM (inactive)
GI50 (TK-10): > 100 µM (inactive)
GI50 (U-251): > 100 µM (inactive)
GI50 (UACC-257): > 100 µM (inactive)
GI50 (UACC-62): > 100 µM (inactive)
GI50 (UO-31): > 100 µM (inactive)
